Assay results taken from patent EP1285920A1, “C10 Ester sustituted taxanes as antitumor agents” (Florida State University Research Foundation, Inc., priority 2001, dated 2003).

Legend:
[1] = test system: Panc-1 pancreatic carcinoma; assay: In vivo evaluation against Panc-1 human pancreatic carcinoma (Example 17)
Protocol: The dosing volume was 0.3 ml per 20 g mouse.
Female NCr-nude mice were implanted subcutaneously with 1 mm^3 Panc-1 pancreatic carcinoma fragments in the flank and sorted into treatment groups of six mice each. […] Dosing was initiated on Day 1. The antitumor compounds were given i.v. at an estimated maximum tolerated dose (MTD) appropriate for each agent on a qd x 1 schedule (single administration of compound). […] The vehicle was administered i.v. to control mice in Group 1 on the qd x 1 schedule. The study was terminated on Day 60.
The mean days of survival is the number of days after which a neoplasm reached a size of 1.5 g and the animal was euthanized. A complete response is obtained if the tumor shrinks to a size smaller than its size on Day 1 of the study.

[2] = test system: A375 melanoma; details: number of mice, i.v. qd x 1 at estimated MTD (Taxol 24 mg/kg, Taxotere 70 mg/kg), 6 mice/group (Taxotere 7)
Protocol: Dosing was initiated on Day 1. […] Taxotere was given i.v. on a qd x 1 schedule at a dose of 70 mg/kg. […] The study was terminated on Day 60. Treatment groups are detailed in Table 9.

[3] = test system: MX-1 carcinoma
Method in brief: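 Mice dosed with a single i.v. bolus (qd x 1) at each compound's MTD, formulated in 5% ethanol, 5% Cremophor, 90% isotonic saline. Study ended Day 60; complete response = tumor not palpable at study end.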

[4] = test system: HCT116 carcinoma
Method in brief: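 Mice bearing HCT116 tumours received a single i.v. maximum tolerated dose per compound, formulated in 5% ethanol, 5% Cremophor, 90% isotonic saline. Study ended on Day 60; complete response meant no palpable tumour at study end.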

[5] = test system: A2780 ovarian carcinoma
Protocol: Dosing was initiated on Day 1. […] Taxotere was given i.v. on a qd x 1 schedule at a dose of 70 mg/kg. […] The study was terminated on Day 60. Treatment groups are detailed in Table 7.

[6] = test system: HCT116; assay: In Vitro cytotoxicity measured by the cell colony formation assay; assay type: cell-based, human; details: Homo sapiens, HCT-116; read-out: IN VITRO ID 50 HCT116
Method in brief: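 Four hundred cells per dish in McCoy's 5a medium with 10% FBS were allowed to attach for 5 h at 37 °C. They were then exposed to compound for 72 h at 37 °C, added as a 10× stock made fresh in medium. After HBSS rinsing and refeeding, colonies were counted after 7 days.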

[7] = test system: DU145 prostate carcinoma
Text: Dosing was initiated on Day 1. […] Treatment groups are detailed in Table 5.

[8] = test system: VM46 colon carcinoma
Protocol: Dosing was initiated on Day 1. […] Taxotere was given i.v. at a dose of 70 mg/kg on a qd x 1 schedule.

[9] = number of mice, i.v. qd x 1, mg/kg: Taxol 36, 0499 77, 0503 72.6, 0670 123.1, 0706 107.6, 0838 72.6, 0854 76.9, 6 mice/group, Day 60
[10] = number of mice, i.v. qd x 1, mg/kg: Taxol 24, 0499 77, 0503 72.6, 0670 123.1, 0706 107.6, 0838 72.6, 0854 46.6, 0983 67.4, Taxotere 70, 6 mice/group, Day 64

Structure (SMILES): CCC(=O)O[C@H]1C(=O)[C@@]2(C)[C@H]([C@H](OC(=O)c3ccccc3)[C@]3(O)C[C@H](OC(=O)[C@H](O)[C@@H](NC(=O)c4ccccc4)C4CC4)C(C)=C1C3(C)C)[C@]1(OC(C)=O)CO[C@@H]1C[C@@H]2O [Compound 0706]
- MDS ([1]; Panc-1 (Example 17), i.v. qd x 1 (compounds estimated MTD; Taxol 36 mg/kg split), days until tumor 1.5 g, ended Day 60): 47 to 56 days
- Toxic Deaths ([1]; number of mice, i.v. qd x 1, mg/kg: Taxol 36, 0499 77, 0503 72.6, 0670 123.1, 0706 107.6, 0838 72.6, 0854 76.9, 6 mice/group): 0
- Complete Response [1, 9]: 0
- Partial Response [1, 9]: 3
- Stable Disease [1, 9]: 2
- Mean Score ([1]; tumor scoring system, i.v. qd x 1, mg/kg: Taxol 36, 0499 77, 0503 72.6, 0670 123.1, 0706 107.6, 0838 72.6, 0854 76.9, 6 mice/group): 6.6 ± 1
- Toxic Deaths [2]: 1
- Survivors ([2]; Day 60): 0
- Partial Response ([3]; iv): 0
- Complete Response ([3]; iv, 1440 h): 5
- Mean Score ([3]; iv, 1440 h): 8.3 ± 1.7
- Stable Disease ([3]; iv, 1440 h): 0
- Survivors ([3]; number of 6 mice, i.v. qd x 1 at MTD, Day 60, doses as in E17): 5
- Toxic Deaths ([3]; number of 6 mice, i.v. qd x 1 at MTD, Day 60, mg/kg: Taxol 36 (split dose), 0503 72.6, 0536 49, 0663 159, 0670 123, 0687 159, 0706 108, 0908 159, 0947 76.9, 0951 72.6, 0983 67.4, 0999 49, 1003 49, 1011 108): 1
- Partial Response ([4]; iv): 4
- Complete Response ([4]; iv, 1440 h): 1
- Mean Score ([4]; iv, 1440 h): 9.2 ± 0.2
- Stable Disease ([4]; iv, 1440 h): 0
- Survivors ([4]; number of 5 mice, i.v. qd x 1 at MTD, Day 60, doses as in E3): 5
- Toxic Deaths ([4]; number of 5 mice, i.v. qd x 1 at MTD, Day 60, mg/kg: Taxol 36 (split doses), 0503 72.6, 0536 49, 0663 159, 0670 123, 0687 159, 0706 108, 0908 159, 0947 76.9, 0951 72.6, 0983 72.6, 0999 49, 1003 49, 1011 108): 0
- Mean Score ([5]; iv, 72.6 mg/kg): 3 ± 0
- Complete Response ([5]; iv, 72.6 mg/kg, 1440 h): 0
- MDS (n) ([5]; iv, 72.6 mg/kg, 1440 h): 37.0 ± 4.1 (5) days
- Partial Respons ([5]; iv, 72.6 mg/kg, 1440 h): 0
- Stable Disease ([5]; iv, 72.6 mg/kg, 1440 h): 0
- Toxic Deaths ([5]; number of mice, i.v. qd x 1 at estimated MTD (Taxol 24 mg/kg, Taxotere 70 mg/kg, 0983 72.6 mg/kg), 5 mice/group (Taxotere 6)): 0
- Survivors ([5]; number of mice, i.v. qd x 1 at estimated MTD (Taxol 24 mg/kg, Taxotere 70 mg/kg, 0983 72.6 mg/kg), 5 mice/group (Taxotere 6), Day 60): 0
- IC50 [6]: < 1 nM
- complete responses ([7]; DU145, i.v. qd x 1, five mice per group): 2
- total response rate ([7]; iv): 20-50%
- Toxic Deaths ([7]; number of 5 mice, i.v. qd x 1 at estimated MTD (Taxol 24 mg/kg as two split doses), Day 91): 0
- Survivors ([7]; number of 5 mice, i.v. qd x 1 at estimated MTD (Taxol 24 mg/kg split), Day 91): 3
- response rate ([8]; VM46, i.v. qd x 1 at estimated MTD): 56%
- MDS (n) ([8]; mean days of survival until neoplasm reached 1.5 g, i.v. qd x 1, mg/kg: Taxol 24, 0499 77, 0503 72.6, 0670 123.1, 0706 107.6, 0838 72.6, 0854 46.6, 0983 67.4, Taxotere 70, 6 mice/group, terminated Day 64): 48.6 ± 0.9 (3) days
- Toxic Deaths ([8]; number of mice, i.v. qd x 1, mg/kg: Taxol 24, 0499 77, 0503 72.6, 0670 123.1, 0706 107.6, 0838 72.6, 0854 46.6, 0983 67.4, Taxotere 70, 6 mice/group): 0
- Complete Response [8, 10]: 1
- Partial Response [8, 10]: 2
- Stable Disease [8, 10]: 0
- Survivors [8, 10]: 3
- Mean Score ([8]; tumor scoring system, i.v. qd x 1, mg/kg: Taxol 24, 0499 77, 0503 72.6, 0670 123.1, 0706 107.6, 0838 72.6, 0854 46.6, 0983 67.4, Taxotere 70, 6 mice/group): 6.2 ± 1.4
